Results reported in patent publication US10407422B2, “Triazolopyridine inhibitors of myeloperoxidase” (priority 2015, dated 2019).

Assays:
Type in all cases: biochemical
[1] = molecular target: T1, myeloperoxidase (MPO) (Homo sapiens (Human), UniProt P05164); assay: MPO peroxidation assay (Amplex Red assay); conditions: potency range class
Outline: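 Human MPO at 200 pM with 40 nM H2O2 preincubated 10 min at room temperature with inhibitor in 100 mM KPi pH 7.4. Reaction started with Amplex Red mixture (200 μM Amplex Red, 10 mM H2O2); resorufin fluorescence (Ex 535, Em 590 nm) read kinetically for 15 min. IC50 fitted from slopes over 180-540 s.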

[2] = molecular target: T1, myeloperoxidase (MPO); assay: MPO chlorination assay (APF assay); conditions: potency range class
Outline: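 Human MPO (200 pM) preincubated 10 min at room temperature with inhibitor and 120 mM NaCl in 100 mM KPi pH 7.4. Reaction started with APF plus 10 μM H2O2, and hypochlorite-generated fluorescein read kinetically (ex 485/em 535 nm) for 3 min. IC50 from linear-phase slopes fitted to a four-parameter equation.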

[3] = molecular target: eosinophil peroxidase (EPX) (Homo sapiens (Human), UniProt P11678); assay: EPX bromination assay
Protocol: [formula] where A=minimal Y value (activity level of inhibited sample), B=maximal Y value (activity level of uninhibited sample), C=Log IC50, D=Hill Slope, x=concentration of inhibitor. EPX Bromination Assay
EPX bromination activity was measured in 100 mM KPi (pH 7.4) by monitoring the H2O2 catalyzed formation of 3-bromo tyrosine from tyrosine and potassium bromide. A 50 μl mixture of 0.6 μM EPX (Lee Biosolutions Cat. #342-60) was added to 100 nL inhibitor in 100% DMSO in a 384 well REMP plate. Enzyme and compound were preincubated for ten minutes at room temperature.
After the ten minute preincubation of enzyme and inhibitor, 25 μL of a mixture containing 400 μM tyrosine and 1200 μM potassium bromide was added to the plate containing enzyme and inhibitor, followed by the addition of 25 μl of 20 μM H2O2. The reaction was allowed to proceed for 15 minutes, at which time it was quenched with 10 μL of 20% TCA. The final concentrations of all components were 0.3 μM EPX, 100 μM tyrosine, […], 5 μM H2O2, 0.1% DMSO, 2.0% TCA.
IC50 values were determined by determining the peak areas of 3-bromotyrosine present at the end of the 15 minute reaction and fitting the data to:
[formula] where A=minimal Y value (activity level of inhibited sample), B=maximal Y value (activity level of uninhibited sample), C=Log IC50, D=Hill Slope, x=concentration of inhibitor.
Reversed-phase analysis was performed on a Waters Acquity Ultra Performance LC system using an Acquity UPLC BEH C18 […], 2.1×50 mm analytical column. The column was maintained at 60° C. Samples were eluted using a gradient of 0%-100% B over 2.5 minutes, followed by equilibration with 100% A for 1 minute where A consisted of 0.1% TFA and B consisted of 90% MeOH/0.1% TFA at a flow rate of 0.6 mL/min. The retention time of 3-bromo tyrosine was 1.22 min (Method A).

T1 sequence (P05164 49-745): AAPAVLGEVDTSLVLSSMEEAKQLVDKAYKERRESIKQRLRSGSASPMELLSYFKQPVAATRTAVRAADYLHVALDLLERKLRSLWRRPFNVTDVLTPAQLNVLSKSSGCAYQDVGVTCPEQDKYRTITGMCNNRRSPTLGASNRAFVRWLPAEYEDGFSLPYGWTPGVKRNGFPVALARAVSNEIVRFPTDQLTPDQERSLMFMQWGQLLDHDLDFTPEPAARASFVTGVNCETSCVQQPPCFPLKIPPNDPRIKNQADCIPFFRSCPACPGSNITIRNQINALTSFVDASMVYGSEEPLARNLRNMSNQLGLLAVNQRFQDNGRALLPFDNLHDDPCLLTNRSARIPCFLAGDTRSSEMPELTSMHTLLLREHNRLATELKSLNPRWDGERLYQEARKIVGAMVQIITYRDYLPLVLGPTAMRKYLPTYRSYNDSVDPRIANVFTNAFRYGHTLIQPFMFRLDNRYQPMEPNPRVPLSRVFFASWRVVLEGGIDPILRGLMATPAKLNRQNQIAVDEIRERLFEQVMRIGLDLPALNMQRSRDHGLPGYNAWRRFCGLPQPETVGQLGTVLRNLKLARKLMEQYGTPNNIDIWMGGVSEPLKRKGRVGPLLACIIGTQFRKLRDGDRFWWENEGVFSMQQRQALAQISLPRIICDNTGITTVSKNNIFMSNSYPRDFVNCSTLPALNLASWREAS
Chain of eosinophil peroxidase (EPX) (P11678 140-715): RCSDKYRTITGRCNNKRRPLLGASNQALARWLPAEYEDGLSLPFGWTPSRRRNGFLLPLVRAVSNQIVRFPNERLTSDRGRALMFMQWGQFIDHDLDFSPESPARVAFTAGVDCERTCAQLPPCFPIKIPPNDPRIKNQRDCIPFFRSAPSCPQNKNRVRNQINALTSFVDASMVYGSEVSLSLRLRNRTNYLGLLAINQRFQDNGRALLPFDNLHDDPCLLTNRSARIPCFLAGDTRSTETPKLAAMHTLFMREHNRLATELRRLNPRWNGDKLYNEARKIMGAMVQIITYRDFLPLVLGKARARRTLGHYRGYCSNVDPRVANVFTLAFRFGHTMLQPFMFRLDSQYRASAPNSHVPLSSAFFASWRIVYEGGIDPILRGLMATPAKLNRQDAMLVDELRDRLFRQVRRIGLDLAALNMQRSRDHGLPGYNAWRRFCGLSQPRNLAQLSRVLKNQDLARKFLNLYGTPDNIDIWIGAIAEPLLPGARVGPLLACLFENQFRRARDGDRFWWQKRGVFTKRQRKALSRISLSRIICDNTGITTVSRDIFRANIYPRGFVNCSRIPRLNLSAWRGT

Row | Compound | IC50 [1] [nM] | IC50 [2] [nM] | IC50 [3] [nM]
1 | Nc1cc(Cc2cnn(Cc3ccccc3)c2)c2nn[nH]c2n1 [Example 34, 7-((1-Benzyl-1H-pyrazol-4-yl)methyl)-3H-[1,2,3]triazolo[4,5-b]pyridin-5-amine] | 1 to 100 | 101 to 999 | 30
2 | Nc1cc(Cc2cnn(Cc3cccc(C4CCNC4)c3)c2)c2nn[nH]c2n1 (centres unmarked) [Example 187, 7-[(1-{[3-(Pyrrolidin-3-yl)phenyl]methyl}-1H-pyrazol-4-yl)methyl]-3H-[1,2,3]triazolo[4,5-b]pyridin-5-amine] | 1 to 100 | 1 to 100 | 21
3 | Nc1cc(Cc2cnn(C3CCC3)c2)c2nn[nH]c2n1 [Example 53, 7-((1-Cyclobutyl-1H-pyrazol-4-yl)methyl)-3H-[1,2,3]triazolo[4,5-b]pyridin-5-amine] | 1 to 100 | – | 32
4 | Nc1cc(Cc2cnn(-c3ccc(F)cc3)c2)c2nn[nH]c2n1 [Example 1, 7-((1-(4-Fluorophenyl)-1H-pyrazol-4-yl)methyl)-3H-[1,2,3]triazolo[4,5-b]pyridin-5-amine] | 1 to 100 | 1 to 100 | 19

Second part, the molecule after the results:

Row | IC50 [1] [nM] | IC50 [2] [nM] | IC50 [3] [nM] | Compound
5 | 1 to 100 | 1 to 100 | 8 | Nc1cc(Cc2cnn(Cc3ccc4c(c3)CCNC4)c2)c2nn[nH]c2n1 [Example 130, 7-((1-((1,2,3,4-Tetrahydroisoquinolin-6-yl)methyl)-1H-pyrazol-4-yl)methyl)-3H-[1,2,3]triazolo[4,5-b]pyridin-5-amine]
6 | 1 to 100 | 101 to 999 | 45 | Nc1cc(Cc2cnn(Cc3ccc(CNC4CC4)cc3)c2)c2nn[nH]c2n1 [Example 185, 7-{[1-({4-[(Cyclopropylamino)methyl]phenyl}methyl)-1H-pyrazol-4-yl]methyl}-3H-[1,2,3]triazolo[4,5-b]pyridin-5-amine]
7 | 1 to 100 | 101 to 999 | 20 | Nc1cc(Cc2cn(Cc3ccccc3)nn2)c2nn[nH]c2n1 [Example 52, 7-((1-Benzyl-1H-1,2,3-triazol-4-yl)methyl)-3H-[1,2,3]triazolo[4,5-b]pyridin-5-amine]
8 | 1 to 100 | 1 to 100 | 11 | Nc1cc(Cc2cnn(-c3ccccc3)c2)c2nn[nH]c2n1 [Example 5, 7-((1-Phenyl-1H-pyrazol-4-yl)methyl)-3H-[1,2,3]triazolo[4,5-b]pyridin-5-amine]
9 | 1 to 100 | 101 to 999 | 114 | Nc1cc(Cc2cnn(Cc3ccc4c(c3)C(F)(F)CNC4)c2)c2nn[nH]c2n1 [Example 260, 7-({1-[(4,4-Difluoro-1,2,3,4-tetrahydroisoquinolin-6-yl)methyl]-1H-pyrazol-4-yl}methyl)-3H-[1,2,3]triazolo[4,5-b]pyridin-5-amine]
